Laboratory results: patent US8497298B2, “Use of benzo-fused heterocycle sulfamide derivatives for lowering lipids and lowering blood glucose levels” (Janssen Pharmaceutica NV, priority 2005, dated 2013)

What was measured:
[1] = test system: Zucker diabetic fatty (ZDF Gmi-fa/fa) rats; assay: Zucker Diabetic Fatty Rats Assay, Study B: basal glucose and Day 8 plasma parameters (Example 15); assay type: in vivo, rat; conditions: for Basal glucose levels Day 4: Day 4, 2 hour fasted; for Basal glucose levels Day 4 / Basal glucose levels Day 6 / Basal glucose levels Day 0: in mg/dL; for Basal glucose levels Day 6: Day 6, 2 hour fasted; for Cholesterol / HDL / Insulin / Ratio (Triglyceride to HDL) / Triglyceride: Day 8 plasma; for Basal glucose levels Day 0: female ZDF rats
Procedure: (§1) Compound #8 was suspended in 0.5% Methocel using a hand held homogenizer to reduce the particle size and a magnetic stir bar and stir plate to keep the particles homogeneously suspended throughout the dosing period. 0.5% Hydroxypropyl Methylcellulose (Methocel) used as vehicle/control. Compound #8 was tested in both diabetic models of mouse and rat.
(§2) In this study, female Zucker diabetic fatty (ZDF Gmi-fa/fa) rats were selected for glucose lowering effect and oral glucose tolerance test (OGTT) studies. ZDF rats from (Charles River Laboratories, Wilmington, Mass.) at 7 weeks of age were individually housed and fed with C13004 diet (obtained from Research Diets, New Brunswick, N.J.). All of the rats were quarantined for a period of one week before transfer to the animal procedure room. A drop of blood (about 2 microliters) was collected by tail puncture and glucose concentration was detected with a glucometer (OneTouch UltraSmart, Lifescan, Milpitas, Calif.).
(§3) ZDF rats at 8 weeks of age were randomized into four treatment groups based on glucose values (first criterion, average of 150 mg/dL) and body weight (second criterion, average of 240 g). 32 rats were allocated into 4 treatment groups of 8 rats each. The four groups were then treated with 0.5% Methocel (vehicle), 10 mg/kg Compound #8, 30 mg/kg Compound #8, and 100 mg/kg Compound #8 in vehicle, respectively.
(§4) The rats were orally gavaged once daily (at 1500-1700 hour) with vehicle control (0.5% Methocel, pH7.4) or vehicle containing Compound #8 for 7 days. The dosing volume was 5 mL/kg body weight (1.2 mL for 250 gram rat). The rats were fed ad lib throughout the study.
(§5) Basal glucose levels after treatments were measured on Day 4 and Day 6 in 2 hour fasted rats with a glucometer (OneTouch UltraSmart, Lifescan, Milpitas, Calif.) after collecting two microliters of blood through tail puncture. Oral Glucose Tolerance Test (OGTT) was performed on Day 7 in 4 hour-fasted rats. Two hours after being dosed with Compound #8 or vehicle, the rats were gavaged with a 2g/kg of 50% glucose solution right after basal glucose levels measurement (0 minute). Blood glucose levels were then measured at 30, 60, 90 and 120 minutes through tail puncture.
On Day 8, rats were anaesthetized with sodium pentobarbital (1 ml/kg, intraperitoneal [i.p.] injection, SleepAway, Fort Dodge, Iowa) and blood was drawn via cardiac puncture using 3 mL syringe and collected into heparinized tubes. Plasma samples were obtained by centrifuging whole blood at 2000˜3000 g for 10˜20 minutes at 4° C. and stored at −20° C. for further measurement of insulin, HDL, total cholesterol and triglyceride.
Plasma insulin concentrations were measured by in both studies using the appropriate rat/mouse insulin enzyme-linked immunosorbent assay (ELISA) kit (EZRMI-13K, LINCO Research, St. Charles, Mo.). Blood samples were diluted 1:4 in charcoal stripped mouse serum that was included in the ELISA kit. The rest of the procedure followed the manufacturers instruction. The total fluorescence was detected using an Orion 1 Microplate Luminometer (Berthold Detection Systems, Pforzheim, Germany).
Plasma total cholesterol, high density lipoprotein (HDL), low density lipoprotein (LDL) and triglyceride concentrations were measured by using a Bayer ADVIA 1650 blood chemistry analyzer (Bayer HealthCare LLC, Diagnostic Division, Tarrytown, N.Y.). According to manufacturers protocol, cholesterol measurement was an enzymatic method utilizing cholesterol esterase and cholesterol oxidase conversion followed by a Trinder endpoint; Elimination/catalase method was used for HDL measurement; an enzymatic method with a Trinder endpoint was used for triglyceride measurement.
(§6) Data from this study was analyzed using the standard two-tailed Student's t-test and are expressed below as means and standard errors.

[2] = test system: Zucker diabetic fatty (ZDF Gmi-fa/fa) rats; assay: Oral Glucose Tolerance Test (OGTT) in Zucker diabetic fatty rats, Day 7 (Example 15); assay type: in vivo, rat; conditions: for AUC for blood glucose (OGTT) / OGTT blood glucose 30 min / OGTT blood glucose 60 min / OGTT blood glucose 90 min / OGTT blood glucose 120 min: Day 7; for OGTT blood glucose 0 min: Day 7, 4 hour-fasted, 2g/kg glucose
Procedure: as §1, §2, §3, §4, §5, §6

NS(=O)(=O)NC[C@H]1COc2cc(Cl)ccc2O1 [Compound #8, (2S)-(−)-N-(6-Chloro-2,3-dihydro-benzo[1,4]dioxin-2-ylmethyl)-sulfamide]
Basal glucose levels Day 4 ([1]; 10 mg/kg oral once daily): 148 ± 15
Basal glucose levels Day 6 ([1]; 10 mg/kg oral once daily): 190 ± 28
Cholesterol ([1]; 10 mg/kg): 142 ± 6 mg/dL
HDL ([1]; 10 mg/kg): 36 ± 1.0 mg/dL
Insulin ([1]; 10 mg/kg): 16 ± 1.0 ng/mL
Ratio (Triglyceride to HDL) ([1]; 10 mg/kg): 37 ± 3
Triglyceride ([1]; 10 mg/kg): 1323 ± 124 mg/dL
Basal glucose levels Day 4 ([1]; 30 mg/kg oral once daily): 146 ± 9
Basal glucose levels Day 6 ([1]; 30 mg/kg oral once daily): 151 ± 11
Cholesterol ([1]; 30 mg/kg): 144 ± 11 mg/dL
HDL ([1]; 30 mg/kg): 36 ± 1.1 mg/dL
Insulin ([1]; 30 mg/kg): 14 ± 1.1 ng/mL
Ratio (Triglyceride to HDL) ([1]; 30 mg/kg): 39 ± 7
Triglyceride ([1]; 30 mg/kg): 1383 ± 254 mg/dL
Basal glucose levels Day 4 ([1]; 100 mg/kg oral once daily): 125 ± 4
Basal glucose levels Day 6 ([1]; 100 mg/kg oral once daily): 134 ± 5
plasma insulin decreased ([1]; 100 mg/kg, Day 8): 32%
ratio of triglyceride to HDL reduced ([1]; 100 mg/kg, Day 8): 59%
Cholesterol ([1]; 100 mg/kg): 134 ± 7 mg/dL
HDL ([1]; 100 mg/kg): 41 ± 2.2 mg/dL
Insulin ([1]; 100 mg/kg): 8.8 ± 1.2 ng/mL
Ratio (Triglyceride to HDL) ([1]; 100 mg/kg): 19 ± 3
Triglyceride ([1]; 100 mg/kg): 776 ± 119 mg/dL
food intake and weight loss ([1]; any of the groups (10, 30, 100 mg/kg)): No reduction in food intake reduction or weight loss
Basal glucose levels Day 0 ([1]; 10 mg/kg group): 153 ± 13
Basal glucose levels Day 0 ([1]; 30 mg/kg group): 152 ± 11
Basal glucose levels Day 0 ([1]; 100 mg/kg group): 147 ± 7
AUC for blood glucose (OGTT) ([2]; 10 mg/kg): 33279 ± 3607 mg·min/dL
OGTT blood glucose 30 min ([2]; 10 mg/kg): 281 ± 30
OGTT blood glucose 60 min ([2]; 10 mg/kg): 316 ± 33
OGTT blood glucose 90 min ([2]; 10 mg/kg): 293 ± 24
OGTT blood glucose 120 min ([2]; 10 mg/kg): 252 ± 30
OGTT blood glucose 0 min ([2]; 10 mg/kg): 186 ± 30
AUC for blood glucose (OGTT) ([2]; 30 mg/kg): 28556 ± 2477 mg·min/dL
OGTT blood glucose 30 min ([2]; 30 mg/kg): 244 ± 24
OGTT blood glucose 60 min ([2]; 30 mg/kg): 263 ± 18
OGTT blood glucose 90 min ([2]; 30 mg/kg): 253 ± 23
OGTT blood glucose 120 min ([2]; 30 mg/kg): 221 ± 18
OGTT blood glucose 0 min ([2]; 30 mg/kg): 163 ± 18
AUC for blood glucose (OGTT) ([2]; 100 mg/kg): 21529 ± 984 mg·min/dL
OGTT blood glucose 30 min ([2]; 100 mg/kg): 209 ± 14
OGTT blood glucose 60 min ([2]; 100 mg/kg): 200 ± 10
OGTT blood glucose 90 min ([2]; 100 mg/kg): 175 ± 8
OGTT blood glucose 120 min ([2]; 100 mg/kg): 145 ± 7
OGTT blood glucose 0 min ([2]; 100 mg/kg): 123 ± 5
